{
  "source": "patent US20240408086A1",
  "about": "“USE OF LUVADAXISTAT FOR THE TREATMENT OF COGNITIVE IMPAIRMENT” (TAKEDA PHARMACEUTICAL COMPANY LIMITED, priority 2021, published 2024)",
  "key": {"mouse hippocampus": {"test_system": "mouse hippocampus", "assay": "Hippocampal long-term potentiation (LTP) after acute and sub-chronic oral dosing", "type": "in vivo, mice", "method": "In this study, hippocampal synaptic plasticity was evaluated using a well-established long-term potentiation (LTP) paradigm after acute and sub-chronic (14 days) dosing with Compound (I).\nWild-type mice aged 5-6 weeks (total of 97; n=5-8 per condition) were given acute or sub-chronic (14-day) oral doses of Compound (I) (from 0.001 mg/kg to 10 mg/kg, p.o.) or vehicle (1% Tween 80 in 0.5% methylcellulose). Hippocampal slices were harvested after 5 hours. Cerebellum and blood plasma were also obtained to measure D-serine levels achieved in the experimental animals.\nElectrophysiological recordings were obtained from a single hippocampal slice placed on the chamber and perfused with aCSF at a constant rate. Extracellular field excitatory postsynaptic potentials (fEPSPs) were recorded in the CA1 stratum radiatum using a glass micropipette filled with aCSF. fEPSPs were evoked by electrical stimulation of Schaffer collaterals/commissural pathway at 0.1 Hz with a glass stimulating electrode placed in the stratum radiatum.\nTo test the effect of Compound (I) on basal synaptic transmission, Input/Output […] curves were constructed at the beginning of the experiment. The slope of fEPSPs was measured and plotted against different intensities of stimulation (from 0 to 100 μA). Long-term potentiation (LTP) was induced by a theta burst stimulation protocol (10 bursts of 4 pulses at 100 Hz, with 200 ms between bursts) at baseline stimulation intensity. Following this conditioning stimulus, a 1-hour test period was recorded where responses were again elicited by a single stimulation every 10 seconds (0.1 Hz) at the same stimulus intensity."}, "[1]": {"test_system": "patients with schizophrenia", "assay": "Phase 1b crossover study: eye-blink conditioning (EBC)", "type": "in vivo, human", "source_text": "(§1) NCT03359785 was a randomized, double-blind, placebo-controlled cross-over Phase 1b clinical trial in schizophrenia patients at a single site to evaluate PD effects, safety, tolerability, and pharmacokinetics of multiple oral doses of Compound (I). The objective of the study was to assess pharmacodynamic (PD) biomarkers of Compound (I) on measures related to cerebellar circuitry function and NMDA pharmacology that are known to be affected in schizophrenia.\nThe primary endpoint was the average percentage of conditioned responses during the eye-blink conditioning (EBC) test at day 8 of each treatment period (FIG. 10). EBC was used to assess the impact of Compound (I) on cerebellar circuitry function. EBC is a highly conserved reflex that is dependent on cerebellar circuitry, with NMDA receptors playing a key role. EBC is impaired in patients with schizophrenia compared with healthy controls.\nAll endpoints were analyzed as change from baseline compared to placebo within the same subjects. Statistical comparisons were conducted with an ANOVA model, with treatment sequence, period, and treatment as fixed effects, and subject as a random effect. […]"}, "Rat": {"test_system": "Rat", "assay": "Attention set-shifting task (ASST) (executive function)", "type": "in vivo", "set-up": "key: a + sign means efficacious; a − sign means not efficacious", "details": "for Attention set-shifting task (ASST) (executive function): 14-Day Once Daily (QD); for ASST (executive function): Single Dose", "source_text": "In Table 1, a + sign means efficacious, a − sign means not efficacious, and an empty cell indicates a dose was not tested."}, "[2]": {"test_system": "adult patients with persistent negative symptoms of schizophrenia", "experimental": "Additionally, eligible participants were receiving stable antipsychotic treatment at a 2-6 mg daily dose of risperidone equivalents, and were allowed to be treated with a second antipsychotic if it was used as a hypnotic at a subtherapeutic dose (subject to sponsor approval). […] To overcome potential confounding effects, those with depressive and extrapyramidal symptoms were excluded.\nDose selection for this study was based on target occupancy and elevation of D-serine.\nThe study comprised a 28-day screening period, a 14-day single-blinded placebo run-in period to prospectively evaluate drug adherence and BNSS score stability, and a 12-week double-blinded treatment period (FIG. 5). […] Demographics, baseline characteristics, and efficacy assessments were based on the full analysis set, which included randomized participants who received at least one dose of the study drug during the treatment period (Table 6). The safety analysis set included randomized participants who received at least one dose of the study drug.\nSafety endpoints included assessment of treatment-emergent adverse events (TEAEs)."}, "[3]": {"test_system": "patients with schizophrenia", "assay": "Phase 1b crossover study: auditory steady state response (ASSR) gamma band power", "type": "in vivo, human", "source_text": "as §1\nEvoked potentials in the electroencephalogram were also tested to assess the impact of multiple oral doses of Compound (I) on NMDA-sensitive physiological responses that are affected in schizophrenia. Specifically, mismatch negativity (MMN), auditory steady state response (ASSR), and P300 were measured at baseline and following 8 days of treatment in both periods.\nASSR are evoked oscillatory responses that are entrained to the frequency and phase of temporally modulated stimuli. Individuals with schizophrenia experience subjective sensory anomalies and objective deficits on assessment of sensory function. These deficits can be produced by abnormal signaling in the sensory pathways and sensory cortex or by later-stage disturbances in the cognitive processing of such inputs. ASSR can be used to assess the integrity of sensory pathways including cortical processing. ASSR was measured at midline central electrode (Cz) of EEG.\nAll endpoints were analyzed as change from baseline compared to placebo within the same subjects. Statistical comparisons were conducted with an ANOVA model, with treatment sequence, period, and treatment as fixed effects, and subject as a random effect. As a supplementary analysis, an analysis of covariance model (ANCOVA) was applied to the primary endpoint with (period) baseline as a covariate, treatment sequence, period, treatment effect and baseline-by-treatment as fixed effects, and subject as a random effect."}, "[4]": {"details": "50 mg once daily, count (%) of N = 58"}, "[5]": {"details": "125 mg once daily, count (%) of N = 56"}, "[6]": {"details": "500 mg once daily, count (%) of N = 55"}},
  "note": "Read-outs that look alike come from different tables or passages of the source.",
  "data": [
    {"smiles": "O=c1[nH]nc(CCc2ccc(C(F)(F)F)cc2)cc1O", "note": "[Compound (I), luvadaxistat]", "values": [
      {"measurement": "LTP in the mouse hippocampus", "setting": "mouse hippocampus; single oral doses vs vehicle, one-way ANOVA", "value": "did not significantly affect LTP"},
      {"measurement": "LTP in the mouse hippocampus", "setting": "mouse hippocampus; sub-chronic (14-day) oral dose 0.001 mg/kg, p<0.05 vs vehicle", "value": "increased LTP"},
      {"measurement": "LTP in the mouse hippocampus", "setting": "mouse hippocampus; sub-chronic (14-day) oral dose 0.01 mg/kg, p<0.05 vs vehicle", "value": "increased LTP"},
      {"measurement": "LTP in the mouse hippocampus", "setting": "mouse hippocampus; sub-chronic (14-day) oral dose 0.1 mg/kg, p<0.05 vs vehicle", "value": "decreased LTP"},
      {"measurement": "LTP in the mouse hippocampus", "setting": "mouse hippocampus; sub-chronic (14-day) oral dose 10 mg/kg, p<0.05 vs vehicle", "value": "decreased LTP"},
      {"measurement": "EBC change from baseline, effect size vs placebo (ANCOVA)", "setting": "[1]; 50 mg for 8 days, p=0.109", "value": 0.246},
      {"measurement": "EBC change from baseline, effect size vs placebo (ANCOVA)", "setting": "[1]; 500 mg for 8 days, p=0.777", "value": "−0.198"},
      {"measurement": "Attention set-shifting task (ASST) (executive function)", "setting": "Rat; 0.1 mg/kg", "value": "+"},
      {"measurement": "Attention set-shifting task (ASST) (executive function)", "setting": "Rat; 1 mg/kg", "value": "+"},
      {"measurement": "Attention set-shifting task (ASST) (executive function)", "setting": "Rat; 10 mg/kg", "value": "+"},
      {"measurement": "ASST (executive function)", "setting": "Rat; 3 mg/kg", "value": "+"},
      {"measurement": "ASST (executive function)", "setting": "Rat; 10 mg/kg", "value": "+"},
      {"measurement": "ASST (executive function)", "setting": "Rat; 30 mg/kg", "value": "+"},
      {"measurement": "Frequent TEAEs: Headache", "setting": "[2]; [4]", "value": 0},
      {"measurement": "Frequent TEAEs: Increased weight", "setting": "[2]; [4]", "value": "2 (3.4)"},
      {"measurement": "Frequent TEAEs: Insomnia", "setting": "[2]; [4]", "value": 0},
      {"measurement": "Patients with Mild TEAEs", "setting": "[2]; [4]", "value": "10 (17.2)"},
      {"measurement": "Patients with Moderate TEAEs", "setting": "[2]; [4]", "value": "2 (3.4)"},
      {"measurement": "Patients with Severe TEAEs", "setting": "[2]; [4]", "value": "1 (1.7)"},
      {"measurement": "Patients with any TEAEs", "setting": "[2]; [4]", "value": "13 (22.4)"},
      {"measurement": "Serious adverse events", "setting": "[2]; [4]", "value": 0},
      {"measurement": "TEAEs leading to study discontinuation", "setting": "[2]; [4]", "value": 0},
      {"measurement": "TEAEs related to study drug", "setting": "[2]; [4]", "value": 0},
      {"measurement": "Deaths", "setting": "[2]; 50 mg once daily, count of N = 58", "value": 0},
      {"measurement": "Severe event of chronic cholecystitis, number of participants", "setting": "[2]; 50 mg once daily, not considered drug related", "value": 1},
      {"measurement": "Severe schizophrenia (drug-related serious TEAE), number of participants", "setting": "[2]; 125 mg once daily", "value": "one"},
      {"measurement": "Frequent TEAEs: Headache", "setting": "[2]; [5]", "value": "5 (8.9)"},
      {"measurement": "Frequent TEAEs: Increased weight", "setting": "[2]; [5]", "value": 0},
      {"measurement": "Frequent TEAEs: Insomnia", "setting": "[2]; [5]", "value": "2 (3.6)"},
      {"measurement": "Patients with Mild TEAEs", "setting": "[2]; [5]", "value": "13 (23.2)"},
      {"measurement": "Patients with Moderate TEAEs", "setting": "[2]; [5]", "value": "3 (5.4)"},
      {"measurement": "Patients with Severe TEAEs", "setting": "[2]; [5]", "value": "1 (1.8)"},
      {"measurement": "Patients with any TEAEs", "setting": "[2]; [5]", "value": "17 (30.4)"},
      {"measurement": "Serious adverse events", "setting": "[2]; [5]", "value": "1 (1.8)"},
      {"measurement": "TEAEs leading to study discontinuation", "setting": "[2]; [5]", "value": "1 (1.8)"},
      {"measurement": "TEAEs related to study drug", "setting": "[2]; [5]", "value": "4 (7.1)"},
      {"measurement": "Deaths", "setting": "[2]; 125 mg once daily, count of N = 56", "value": 0},
      {"measurement": "Frequent TEAEs: Headache", "setting": "[2]; [6]", "value": "2 (3.6)"},
      {"measurement": "Frequent TEAEs: Increased weight", "setting": "[2]; [6]", "value": 0},
      {"measurement": "Frequent TEAEs: Insomnia", "setting": "[2]; [6]", "value": "2 (3.6)"},
      {"measurement": "Patients with Mild TEAEs", "setting": "[2]; [6]", "value": "8 (14.5)"},
      {"measurement": "Patients with Moderate TEAEs", "setting": "[2]; [6]", "value": "8 (14.5)"},
      {"measurement": "Patients with Severe TEAEs", "setting": "[2]; [6]", "value": 0},
      {"measurement": "Patients with any TEAEs", "setting": "[2]; [6]", "value": "16 (29.1)"},
      {"measurement": "Serious adverse events", "setting": "[2]; [6]", "value": 0},
      {"measurement": "TEAEs leading to study discontinuation", "setting": "[2]; [6]", "value": "1 (1.8)"},
      {"measurement": "TEAEs related to study drug", "setting": "[2]; [6]", "value": "7 (12.7)"},
      {"measurement": "Deaths", "setting": "[2]; 500 mg once daily, count of N = 55", "value": 0},
      {"measurement": "ASSR gamma power, effect size vs placebo", "setting": "[3]; 50 mg for 8 days", "value": 0.575},
      {"measurement": "ASSR gamma power, change from baseline", "setting": "[3]; 50 mg for 8 days, placebo −16.282, p=0.056", "value": 2.135},
      {"measurement": "ASSR gamma power, effect size vs placebo", "setting": "[3]; 500 mg for 8 days", "value": 0.003},
      {"measurement": "ASSR gamma power, change from baseline", "setting": "[3]; 500 mg for 8 days, placebo 9.203, p=0.495", "value": 9.411}
    ]}
  ]
}
